Data from US20240384268A1, “Oligonucleotides” (Hudson Institute of Medical Research, priority 2021, published 2024).
In the oligonucleotide strings, read from the 5' end, every base follows the letter of its sugar. An asterisk marks phosphorothioate; unmarked linkages are phosphodiester. Other units and linkages are bracketed, terminal groups are in braces. A string of capitals states the bases alone. m = 2'-O-methyl

Biological target: T1, human TLR7 (Homo sapiens, UniProt Q9NYK1)
T1 construct: HA; host or cells: 293XL-hTLR7-HA (HEK293)
T1 sequence (Q9NYK1 27-1049): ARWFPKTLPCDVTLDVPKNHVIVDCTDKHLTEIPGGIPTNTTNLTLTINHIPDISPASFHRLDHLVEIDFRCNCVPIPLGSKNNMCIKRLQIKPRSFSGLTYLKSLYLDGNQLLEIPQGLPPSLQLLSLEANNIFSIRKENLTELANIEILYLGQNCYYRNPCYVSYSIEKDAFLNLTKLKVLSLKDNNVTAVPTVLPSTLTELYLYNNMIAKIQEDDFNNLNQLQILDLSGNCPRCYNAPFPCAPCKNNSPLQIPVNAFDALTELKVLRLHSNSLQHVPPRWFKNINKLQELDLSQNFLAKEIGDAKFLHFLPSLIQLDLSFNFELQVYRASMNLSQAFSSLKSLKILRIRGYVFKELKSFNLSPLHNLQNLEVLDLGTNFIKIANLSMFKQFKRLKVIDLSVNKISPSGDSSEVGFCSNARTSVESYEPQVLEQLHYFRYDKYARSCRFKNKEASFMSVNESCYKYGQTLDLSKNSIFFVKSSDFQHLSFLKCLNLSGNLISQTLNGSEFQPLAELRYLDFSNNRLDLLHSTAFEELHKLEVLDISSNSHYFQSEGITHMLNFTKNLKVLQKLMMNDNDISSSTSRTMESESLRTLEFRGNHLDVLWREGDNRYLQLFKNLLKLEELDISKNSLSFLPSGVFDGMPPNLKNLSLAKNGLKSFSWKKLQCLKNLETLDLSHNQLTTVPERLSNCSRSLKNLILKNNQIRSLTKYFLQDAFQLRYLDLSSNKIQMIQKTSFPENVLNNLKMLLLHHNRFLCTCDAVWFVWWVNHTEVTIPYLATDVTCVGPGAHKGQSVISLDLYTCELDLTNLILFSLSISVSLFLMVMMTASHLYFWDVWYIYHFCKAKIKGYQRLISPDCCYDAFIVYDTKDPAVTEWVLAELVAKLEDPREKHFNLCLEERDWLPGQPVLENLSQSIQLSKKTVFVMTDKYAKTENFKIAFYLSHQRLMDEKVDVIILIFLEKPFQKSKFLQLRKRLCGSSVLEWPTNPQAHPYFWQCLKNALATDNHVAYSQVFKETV
Experiment: HEK-TLR7 NF-κB-luciferase reporter, R848 stimulation
Type: cell-based
Details: HEK-TLR7; for TLR7 400 nM: 3mer 2'OMe ASO at 400 nM; for TLR7 400 nM / TLR7 2 uM: value relative to Ligand only = 1.000, NT = 0.000; for TLR7 2 uM: 3mer 2'OMe ASO at 2 uM; for inhibition of TLR7 by 3-mer 2′OMe oligos (in words): 400 nM and 2 μM 3-mer, ~30 min, R848 1 μg/ml

Substance | TLR7 400 nM | TLR7 2 uM | inhibition of TLR7 by 3-mer 2′OMe oligos (in words)
mGmUmC (mG*mU*mC) [GUC, 3-mer 2′OMe PS oligo] | 0.140 | 0.017 | most potent 3-mer inhibiting TLR7
mGmUmG (mG*mU*mG) [GUG, 3-mer 2′OMe PS oligo] | 0.449 | 0.072 | inhibiting TLR7
mGmUmU (mG*mU*mU) [GUU, 3-mer 2′OMe PS oligo] | 0.781 | 0.119 | inhibiting TLR7
mUmCmA (mU*mC*mA) [UCA, 3-mer 2′OMe PS oligo] | 1.122 | 0.819 | 
mUmCmG (antisense mU*mC*mG) [660-3b] | 0.979 | 0.982 | 
mUmGmA (mU*mG*mA) [UGA, 3-mer 2′OMe PS oligo] | 1.126 | 0.831 | 
mUmGmG (mU*mG*mG) [UGG, 3-mer 2′OMe PS oligo] | 1.029 | 0.989 | 
